Laboratory results reported in patent publication US20100093637A1, “PEPTIDES AND USE THEREOF” (priority 2005, published 2010).

System: Human fibroblasts
Assay: Stimulation of collagen synthesis measured by incorporation of tritiated proline in fibroblast collagenic fractions
Assay type: cell-based
Details: 72 hours of treatment
Description: The stimulation of collagen synthesis by peptides of the present invention was evaluated by measuring the incorporation of tritiated proline in fibroblasts collagenic fractions. The assay was conducted as follows. Human fibroblasts (obtained from the human biopsy of a person) were seeded in 24-well plates at approximately 40,000 cells per well in 1 ml of culture medium. The culture medium contained DMEM (Invitrogen S.a.r.l., Cergy Pontoise, France) supplemented with 10% Fetal Calf Serum (FCS, Cambrex Bio Science Paris S.a.r.l., Emerainville, France), 1% Glutamax (Invitrogen S.a.r.l.), 4 μg/ml gentamicine (Invitrogen S.a.r.l.), and 2.5 μg/ml Fungizone (Invitrogen S.a.r.l.). Cells were placed at 37° C. under 5% CO2 in a humidified atmosphere for 72 hours.
The culture medium was the removed and replaced with 1 ml of either: (i) incubation medium alone (untreated control); (ii) incubation medium further containing 1 ng/ml TGFb1 (R&D Systems Europe, Lille, France) for use as a stimulated positive control; or (iii) incubation medium further containing one of the tested peptides at a concentration of 1 μg/ml or 10 μg/ml. The incubation medium contained DMEM supplemented with 2% FCS, 1% Glutamax, 4 μg/ml gentamicine, 2.5 μg/ml Fungizone, 50 μg/ml ascorbic acid, 50 μg/ml b-aminoproionitrile, and 3.4 μg/ml a ketoglutarate.
During the last 24 hours of incubation, five μCi of tritiated proline (L-2,3-3H proline, Amersham Biosciences Europe, Saclay, France) was also added to each well. Each condition (untreated control, positive control and tested peptide) was performed in triplicate. In order to normalize the results, the same experiment was performed in parallel, except that tritiated proline was omitted. At the end of the treatment, cells were counted with a coulter counter. After 72 hours of treatment, incubation medium (supernatants) were collected in 2 ml microtubes and frozen at −20° C.
In order to perform the collagen extraction, 1 ml of cold 20% TCA (Sigma-Aldrich, Lyon, France) was added to 1 ml of supernatant. The samples were then vortexed, incubated for 5 minutes (min) at −20° C., and let stand on ice for 30 min. The samples were then centrifuged (2300 g, 5 min, 4° C.). The supernatants were then eliminated, and the pellets were rinsed with 1 ml of cold 5% TCA, vortexed, and centrifuged (2300 g, 5 min, 4° C.). The pellets were then rinsed twice with 5% TCA following the same procedure as described above. The pellets were then dissolved in 0.3 ml of 0.05 N NaOH and neutralized with 0.1N HCl to reach pH 6-8. Then, 0.2 ml of protein solution was incubated for 2 hours at 37° C. in 2×Tris HCl Buffer containing 10 units of collagenase activity (Clostridium hystolyticum Type III collagenase, Sigma-Aldrich, Lyon, France).
The enzymatic reaction was then stopped by precipitation with 500 μl of 15% TCA and 500 μl of 0.75% tannic acid. Samples were then incubated 30 min on ice. The precipitates were then centrifuged (2300 g, 5 min, 4° C.). The supernatants containing collagen fractions were collected, and scintillation liquid (Ecolume ICN) was added to each sample (5 ml to 100 μl sample). Then, radioactivity was measured in a β-scintillation counter.
The rate of collagen synthesis was calculated as follows: Synthesis rate=(number of dpm/cell number)*1000
The percentage of stimulation was calculated as follows: % of stimulation=[(synthesis rate in sample-synthesis rate in control)/(synthesis rate in control)]*100.

[1] = peptide at 1 ug/ml in incubation medium
[2] = peptide at 10 ug/ml in incubation medium

| Substance | Percent stimulation vs. control [1] [%] | Percent stimulation vs. control (peptide at 1 ug/ml in incubation medium, listed as TRNDKL) [%] | Percent stimulation vs. control [2] [%] | Percent stimulation vs. control (peptide at 10 ug/ml in incubation medium, listed as TRNDKL) [%] | Percent stimulation vs. control (peptide at 1 ug/ml in incubation medium, listed as VFTRN) [%] | Percent stimulation vs. control (peptide at 10 ug/ml in incubation medium, listed as VFTRN) [%] | Percent stimulation vs. control (1 ng/ml in incubation medium, positive control) [%] | Percent stimulation vs. control (1 ng/ml in incubation medium, positive control, listed as TGFb) [%] |
| --- | --- | --- | --- | --- | --- | --- | --- | --- |
| H2-Thr-Arg-Asn-Asp-Lys-Leu-OH (H-TRNDKL-OH) [Peptide 2] | 23.5 | 25 | 42.6 | 42 | – | – | – | – |
| H2-Val-Arg-Phe-Thr-Arg-Asn-OH (H-VRFTRN-OH) [Peptide 1] | 14.8 | – | 43.1 | – | 15 | 43 | – | – |
| TGF b: potent stimulator of collagen synthesis in dermal fibroblast used as positive control [reference compound] | – | – | – | – | – | – | 45.7 | 45 |
